Laboratory results taken from PubChem BioAssay (NCI).
Values joined by “and” are separate entries in the source; they are usually repeats but may differ in a detail not shown here. Equal entries are not always repeated.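 Five compound concentrations were applied to cells in 96-well plates for 48 hours; endpoints were derived by simple linear interpolation of the resulting dose-response curve. Abbreviation: GI50, concentration required for 50% inhibition of growth. At the TGI there is no net growth.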

What was measured:
Test in all cases: DTP human tumour cell line panel, 48 h
[1] = test system: IGROV1 ovarian
[2] = test system: LOX IMVI melanoma
[3] = test system: MOLT-4 leukemia
[4] = test system: NCI-H226 lung
[5] = test system: NCI-H460 lung
[6] = test system: OVCAR-5 ovarian
[7] = test system: SK-OV-3 ovarian
[8] = test system: UACC-257 melanoma

| SMILES | GI50 [1] | TGI [1] | TGI [2] | GI50 [3] | TGI [3] | GI50 [4] | TGI [4] | TGI [5] | GI50 [6] | TGI [6] | GI50 [7] | TGI [7] | GI50 [2] | TGI [8] | GI50 [5] | GI50 [8] |
| --- | --- | --- | --- | --- | --- | --- | --- | --- | --- | --- | --- | --- | --- | --- | --- | --- |
| CC1(C)OC2OC(COC(=O)C(c3ccccc3)c3ccccc3)C3OC(C)(C)OC3C2O1 (configuration not stated) | > 100 µM | > 100 µM | > 100 µM | 3.76 µM | > 100 µM | > 100 µM | > 100 µM | > 100 µM | > 100 µM | > 100 µM | > 100 µM | > 100 µM | – | – | – | – |
| CC1CCC2c3c([nH]c4ccccc34)C3C(=O)N(c4ccccc4)C(=O)C3C2C1 (configuration not stated) | 38.2 µM | 57 µM and 130 µM | > 250 µM | 44.7 µM | 95.5 µM and 99.1 µM | 62.3 µM | 96.4 µM and 161 µM | > 250 µM | – | – | 13.2 µM | 28.5 µM and 99.6 µM | 153 µM | > 250 µM | – | – |
| CC1=C(C(=O)CC(=O)C(=O)Nc2ccccc2C)Sc2ccccc2N1 | – | > 100 µM | > 57.4 µM | – | > 100 µM | – | > 100 µM | > 56.2 µM | – | > 100 µM | – | > 100 µM | – | > 100 µM | – | – |
| O=C1c2ccoc2C(=O)c2oc(=O)ccc21 | – | 40 µM | 10.7 µM | – | – | – | > 56.7 µM | 37.1 µM | – | 33.9 µM | – | > 57.9 µM | – | 20.8 µM | – | – |
| c1ccc2c(c1)[O][Sn][O]2 | 24.3 µg/mL | > 150 µg/mL | 112 µg/mL | 7.16 µg/mL | > 150 µg/mL | 69.5 µg/mL | > 150 µg/mL | > 150 µg/mL | > 150 µg/mL | > 150 µg/mL | > 150 µg/mL | > 150 µg/mL | 27.8 µg/mL | > 150 µg/mL | 46 µg/mL | > 150 µg/mL |
| CCOC(=O)COc1cccc2occc(=O)c12 | – | > 100 µM | > 100 µM | – | > 100 µM | – | – | > 100 µM | – | > 100 µM | – | > 100 µM | – | > 100 µM | – | – |
| O=C(CCC(=O)C1Cc2ccccc2C1=O)Nc1cccc(C(F)(F)F)c1 (configuration not stated) | – | > 100 µM | > 100 µM | – | > 100 µM | – | > 100 µM | > 100 µM | – | > 100 µM | – | > 100 µM | – | > 100 µM | – | – |
| CC(C)(C)c1cc(C(OCCl)(C(F)(F)F)C(F)(F)F)c2c(c1)C(C(F)(F)F)(C(F)(F)F)OC21c2ccccc2C(=O)c2ccccc21 | – | – | – | – | > 100 µM | – | > 100 µM | > 100 µM | – | > 100 µM | – | – | – | > 100 µM | – | – |
| Nc1nc(-c2ccccc2)cc(-c2cc(Cl)ccc2O)n1 | – | > 100 µM | > 100 µM | – | > 100 µM | – | > 100 µM | > 100 µM | – | > 100 µM | – | 77.8 µM | – | > 100 µM | – | – |
| O=c1c2cccc3cccc(c4n1CCCN=4)c32 | – | > 100 µM | 53.5 µM | – | > 100 µM | – | > 100 µM | > 100 µM | – | > 100 µM | – | > 100 µM | – | > 100 µM | – | – |
| COc1ccc2c3c(c(C(=O)O)oc13)C(CCC(=O)O)CC2 (configuration not stated) | – | > 100 µM | > 100 µM | – | – | – | – | > 100 µM | – | – | – | > 100 µM | – | > 100 µM | – | – |
| O=C(Nc1ccc(Br)cc1)Nc1cccc(Br)c1 | 5.82 µM | > 100 µM | – | 5.38 µM | > 100 µM | 47.1 µM | > 100 µM | – | > 100 µM | > 100 µM | 39.4 µM | > 100 µM | – | > 100 µM | – | > 100 µM |
| Nc1c(C(=O)Nc2ccccc2O)[n+]([O-])c2ccccc2[n+]1[O-] | – | > 100 µM | – | – | > 100 µM | – | > 100 µM | > 100 µM | – | > 100 µM | – | > 100 µM | – | 44.6 µM | – | – |
| C1CCN2CC3CONC3C2C1 (configuration not stated) | – | > 100 µM | > 100 µM | – | > 100 µM | – | > 100 µM | > 100 µM | – | > 100 µM | – | – | – | > 100 µM | – | – |
| Cn1cc(NC(=O)c2cc(NC(=O)CCCCCCCC(=O)Nc3cc(C(=O)Nc4cc(C(=O)NCCC(=N)N)n(C)c4)n(C)c3)cn2C)cc1C(=O)NCCC(=N)N | – | 25.3 µM | 28.8 µM | – | 66.7 µM | – | – | 22 µM | – | > 100 µM | – | > 100 µM | – | 23.8 µM | – | – |
| Cc1c(C)c2ccc(OC(C)C(=O)O)cc2oc1=O (configuration not stated) | – | > 100 µM | > 100 µM | – | > 100 µM | – | > 100 µM | > 100 µM | – | – | – | > 100 µM | – | > 100 µM | – | – |
| NNC(=O)N/N=C1\CNC(=O)C(=O)C1c1nc2ccccc2s1 (configuration not stated) | – | > 100 µM | > 100 µM | – | – | – | > 100 µM | > 100 µM | – | > 100 µM | – | > 100 µM | – | > 100 µM | – | – |
| Nc1c(-c2nc3ccccc3s2)[n+]([O-])c2ccccc2[n+]1[O-] | – | > 100 µM | – | – | > 100 µM | – | > 100 µM | > 100 µM | – | > 100 µM | – | 88.9 µM | – | > 100 µM | – | – |
| NC(=O)C(=O)Cc1nc2ccccc2s1 | – | – | > 100 µM | – | > 100 µM | – | > 100 µM | > 100 µM | – | > 100 µM | – | > 100 µM | – | > 100 µM | – | – |
| CC(=O)c1c(O)c2c([nH]c1=O)CCCC2 | – | > 100 µM | > 100 µM | – | > 100 µM | – | – | 30.5 µM | – | – | – | 48.5 µM | – | – | – | – |
| CCN(CC)CCCNc1c2ccc(Cl)cc2nc2ccc(OC)cc12 | – | – | 1.93 µM | 0.0338 µM | 2.91 µM | 1.84 µM | 4.88 µM | 1.34 µM | – | – | – | – | 0.0342 µM | 3.41 µM | 0.0326 µM | 1.83 µM |
